Calls of active or inactive are those of the source. No cut-off for these calls is given here.
Legend:
[1] = Cell cycle arrest in human A549 cells assessed as accumulation at sub G0 phase at 100 uM by propidium iodide staining-based flow cytometric analysis (reference value: 0.866 +/- 0.03%); format: functional
[2] = Cell cycle arrest in human HeLa cells assessed as accumulation at S phase at 100 uM by propidium iodide staining-based flow cytometric analysis (reference value: 6.7 +/- 0.3%); format: functional
[3] = Cell cycle arrest in human A549 cells assessed as accumulation at G1 phase at 10 uM by propidium iodide staining-based flow cytometric analysis (reference value: 66.2 +/- 1.5%); format: functional
[4] = Cell cycle arrest in human HeLa cells assessed as accumulation at sub G0 phase at 100 uM by propidium iodide staining-based flow cytometric analysis (reference value: 1.05 +/- 0.2%); format: functional
A549 [5] = assay: Induction of apoptosis in human A549 cells assessed as appearance of crescent or granular shape nucleus on one side of the cell at 10 to 100 uM after 24 hrs by acridine orange/ethidium bromide staining-based fluorescence microscopy; format: functional
[6] = Cell cycle arrest in human A549 cells assessed as accumulation at sub G0 phase at 10 uM by propidium iodide staining-based flow cytometric analysis (reference value: 0.866 +/- 0.03%); format: functional
[7] = Cell cycle arrest in human HeLa cells assessed as accumulation at G1 phase at 100 uM by propidium iodide staining-based flow cytometric analysis (reference value: 42 +/- 1.8%); format: functional
[8] = Cell cycle arrest in human A549 cells assessed as accumulation at G1 phase at 100 uM by propidium iodide staining-based flow cytometric analysis (reference value: 66.2 +/- 1.5%); format: functional
A549 [9] = assay: Induction of apoptosis in human A549 cells assessed as appearance of concentrated and asymmetrically localized nucleus at 10 to 100 uM after 24 hrs by acridine orange/ethidium bromide staining-based fluorescence microscopy; format: functional, cell-based
[10] = Cell cycle arrest in human HeLa cells assessed as accumulation at G2/M phase at 10 uM by propidium iodide staining-based flow cytometric analysis (reference value: 47.1 +/- 1.2%); format: functional
[11] = Cell cycle arrest in human HeLa cells assessed as accumulation at G1 phase at 10 uM by propidium iodide staining-based flow cytometric analysis (reference value: 42 +/- 1.8%); format: functional
[12] = Cell cycle arrest in human HeLa cells assessed as accumulation at S phase at 10 uM by propidium iodide staining-based flow cytometric analysis (reference value: 6.7 +/- 0.3%); format: functional
[13] = Cell cycle arrest in human HeLa cells assessed as accumulation at G2/M phase at 100 uM by propidium iodide staining-based flow cytometric analysis (reference value: 47.1 +/- 1.2%); format: functional
[14] = Cell cycle arrest in human HeLa cells assessed as accumulation at sub G0 phase at 10 uM by propidium iodide staining-based flow cytometric analysis (reference value: 1.05 +/- 0.2%); format: functional
A549 [15] = assay: (§1) Cytotoxicity against human A549 cells assessed as decrease in cell viability after 24 hrs by MTT assay; format: functional, cell-based
[16] = as §1; format: functional, cell-based; details: A549, 24 h
HeLa [17] = assay: Induction of apoptosis in human HeLa cells assessed as appearance of concentrated and asymmetrically localized nucleus at 10 to 100 uM after 24 hrs by acridine orange/ethidium bromide staining-based fluorescence microscopy; format: functional, cell-based
[18] = Cell cycle arrest in human A549 cells assessed as accumulation at S phase at 10 uM by propidium iodide staining-based flow cytometric analysis (reference value: 8.9 +/- 0.6%); format: functional
[19] = Cell cycle arrest in human A549 cells assessed as accumulation at G2/M phase at 10 uM by propidium iodide staining-based flow cytometric analysis (reference value: 23.5 +/- 1%); format: functional
HeLa [20] = assay: (§2) Cytotoxicity against human HeLa cells assessed as decrease in cell viability after 24 hrs by MTT assay; format: functional, cell-based
[21] = as §2; format: functional, cell-based
[22] = Cell cycle arrest in human A549 cells assessed as accumulation at S phase at 100 uM by propidium iodide staining-based flow cytometric analysis (reference value: 8.9 +/- 0.6%); format: functional
[23] = Cell cycle arrest in human A549 cells assessed as accumulation at G2/M phase at 100 uM by propidium iodide staining-based flow cytometric analysis (reference value: 23.5 +/- 1%); format: functional

Row | SMILES | Activity [1] [%] | Activity [2] [%] | Activity [3] [%] | Activity [4] [%] | Activity (A549 [5]) | Activity [6] [%] | Activity [7] [%] | Activity [8] [%] | Activity (A549 [9]) | Activity [10] [%] | Activity [11] [%] | Activity [12] [%] | Activity [13] [%] | Activity [14] [%] | Activity (A549 [15]) | IC50 [16] [µM] | Activity (HeLa [17]) | Activity [18] [%] | Activity [19] [%] | IC50 [21] [µM] | other results
1 | O=C(O)/C=C/c1ccccc1 [CINNAMIC ACID] | 0.48 | 14 | 62.7 | 14.4 | Active | 0.54 | 73.3 | 65.6 | Active | 7.1 | 55.6 | 28.6 | 0.5 | 5.8 | Dose-dependent effect | 50.2 | Active | 8.3 | 26.9 | 24.8 | Activity (HeLa [20]): Dose-dependent effect; Activity [22]: 8.1%; Activity [23]: 24.8%
2 | CC[C@H](/C=C/[C@@H](C)[C@H]1CC[C@H]2[C@@H]3CC=C4C[C@@H](O)CC[C@]4(C)[C@H]3CC[C@]12C)C(C)C [STIGMASTEROL] | 0.9 | 7.1 | 62.5 | 1.41 | Active | 0.85 | 38 | 64.9 | Active | 48.7 | 39 | 6.4 | 48.9 | 0.94 | Dose-dependent effect | 10.4 | Active | 9.6 | 26.5 | 12.2 | Activity (HeLa [20]): Dose-dependent effect; Activity [22]: 9.3%; Activity [23]: 24.1%
3 | CC[C@]1(O)C[C@H]2CN(CCc3c([nH]c4ccccc34)[C@@](C(=O)OC)(c3cc4c(cc3OC)N(C=O)[C@H]3[C@@](O)(C(=O)OC)[C@H](OC(C)=O)[C@]5(CC)C=CCN6CC[C@]43[C@@H]65)C2)C1 [VINCRISTINE] | – | – | – | – | – | – | – | – | – | – | – | – | – | – | – | 0.8 | – | – | – | 4.1 | –

From ChEMBL document CHEMBL3861942 (Medchemcomm, 2016)
